System: patients with mild CF lung disease
Assay: Multi-center, double-blind, randomized efficacy and safety study; change in lung function (FEV1) from baseline to Week 24
Format: in vivo, human
Settings: for FEV1 Change from baseline in Liters, Mean (Table 2): subgroups that did not take pulmozyme or inhaled antibiotics; for FEV1 Change from baseline in Liters, Mean (Table 3): pulmozyme/macrolide subgroups
Method: This is a multi-center, double-blind, randomized, efficacy and safety study of denufosol in patients with mild CF lung disease. Approximately 350 patients were enrolled and randomly assigned to receive one of two treatments, 60 mg denufosol TID or placebo TID, with approximately 175 patients assigned to each treatment group. Patients were administered study drug (denufosol) or placebo using the PARI LC STAR™ nebulizer and PART PRONEB Ultra™ compressor. At the end of the 24-week double-blind, placebo-controlled treatment period, placebo patients received 60 mg denufosol for a 24-week safety extension period. All patients on denufosol during the first 24 weeks continued to receive denufosol during the 24-week safety extension. Upon completion of study participation or discontinuation from study treatment, all patients were scheduled for a 1-week follow-up visit.
In general, CF patients took many medications as their usual standard of care. This study was designed to randomly assign patients either to denufosol or placebo on top of their usual standard of care. […] Patients were instructed whenever possible to use these medications consistently throughout the study.
All patients were instructed to inhale the study drug using normal tidal breathing via the PARI LC STAR™ reusable nebulizer and the PARI PRONEB™ Ultra compressor. A dose was considered complete after 15 minutes of inhalation or when the nebulizer sputters. Study drug was taken TID at the same time each day.
Primary efficacy endpoint was change in lung function, as measured by FEV1 (L), from baseline to Week 24 end point. Missing Week 24 data for patients who withdrew prior to Week 24 were imputed from the last available observation carried forward. Secondary efficacy endpoints included the following: time to first pulmonary exacerbation during the 24-week placebo-controlled treatment period; incidence of pulmonary exacerbations during the 24-week placebo-controlled treatment period; number of pulmonary exacerbations/time at risk (incidence density) during the 24-week placebo-controlled treatment period; change in lung function, as measured by FEV1 (L) from baseline to Weeks 4 and 12, and FVC (L) and FEF25%-75% (L/sec) from baseline to Weeks 4, 12, 24, and the end point. Other secondary efficacy endpoints include incidence of IV antibiotic use during the 24-week placebo-controlled treatment period; number of days of IV antibiotic use during the 24-week placebo-controlled treatment period; incidence of new use of antipseudomonal antibiotics during the 24-week placebo-controlled treatment period; incidence of hospitalizations/ER visits for a respiratory-related complaint during the 24-week placebo-controlled treatment period; number of days spent in the hospital for a respiratory-related complaint during the 24-week placebo-controlled treatment period; changes from baseline to Weeks 12 and 24 in Health-related Quality of Life as measured by the Cystic Fibrosis Questionnare and the Feeling Thermometer; and changes in utility assessment from baseline to Weeks 12 and 24 as measured by the Health Utilities Index; number of CF-related days lost from work or school during the 24-week placebo-controlled treatment period; and responses at Week 24 to the Patient Questionnaire.

Molecule | FEV1 Change from baseline in Liters, Mean (Table 2) (baseline to Week 24) | adjusted means for change in lung function, as measured by FEV1, from baseline to Week 24 (macrolide users (97% azithromycin), 60 mg denufosol TID by inhalation, p-value 0.047 vs placebo group) | improvement in FEV1 change in the macrolide group when treated with denufosol (vs placebo group) (macrolide users, baseline to Week 24) | FEV1 Change from baseline in Liters, Mean (Table 3) (baseline to Week 24)
Nc1ccn([C@H]2C[C@H](O)[C@@H](COP(=O)(O)OP(=O)(O)OP(=O)(O)OP(=O)(O)OC[C@H]3O[C@@H](n4ccc(=O)[nH]c4=O)[C@H](O)[C@@H]3O)O2)c(=O)n1 [Denufosol, P^1-(uridine 5′-)-P^4-(2′-deoxycytidine 5′-) tetraphosphate] | 0.0494 L | 0.0288 L | +0.0745 L | 
CC[C@H]1OC(=O)[C@H](C)[C@@H](O[C@H]2C[C@@](C)(OC)[C@@H](O)[C@H](C)O2)[C@H](C)[C@@H](O[C@@H]2O[C@H](C)C[C@H](N(C)C)[C@H]2O)[C@](C)(O)C[C@@H](C)CN(C)[C@H](C)[C@@H](O)[C@]1(C)O [Macrolide (Azithromycin), azithromycin, reference compound] | 0.0430 L |  |  | 0.0430 L
Pulmozyme: CF medication taken as usual standard of care (alfa dornase) (protein, UniProt P24855 23-282, looked up) Deoxyribonuclease-1: LKIAAFNIQTFGETKMSNATLVSYIVQILSRYDIALVQEVRDSHLTAVGKLLDNLNQDAPDTYHYVVSEPLGRNSYKERYLFVYRPDQVSAVDSYYYDDGCEPCGNDTFNREPAIVRFFSRFTEVREFAIVPLHAAPGDAVAEIDALYDVYLDVQEKWGLEDVMLMGDFNAGCSYVRPSQWSSIRLWTSPTFQWLIPDSADTTATPTHCAYDRIVVAGMLLRGAVVPDSALPFNFQAAYGLSDQLAQAISDHYPVEVMLK |  |  |  | 0.0659 L
